This note sets out measurements from the Kinase Knowledgebase extract (Sharma et al. 2016).

In the experiment the target is MAPK14;MAPK11;MAPK12 (human) (UniProt Q16539). The experiment is described as follows: Inhibition of p38 Kinase Activity.
For orientation: IC50 means the point on the concentration scale where inhibition reaches its midpoint. Compound `CONC(=O)c1ccc(C)c(Nc2nc(NC(C)c3ccccn3)nc(N(C)CC(C)(C)C)n2)c1` (stereo unspecified) had an IC50 below 1000 nM. `COCCNC(=O)c1ccc(C)c(Nc2nc(N[C@H]3CCNC3)nc(N(C)CC(C)C)n2)c1` displayed a concentration for half-maximal inhibition (IC50) below 1000 nM.

On to `CN(CCN(C)c1nc(NCCc2ccccc2)nc(Nc2ccc3ncsc3c2)n1)C(=O)CCC(=O)O`, for which the IC50 is below 10000 nM. `CONC(=O)c1ccc(C)c(Nc2cc(F)nc(N(C)CC(C)(C)C)n2)c1` gave an IC50 below 1000 nM. The figure for `CCONC(=O)c1ccc(C)c(Nc2nc(N(C)CC(C)(C)C)nc(N3CCCN(C)CC3)n2)c1` is below 1000 nM; for `Cc1ccc(C(N)=O)cc1Nc1nc(NCCc2ccc(Cl)cc2)nc(N[C@H]2CCNC2)n1` it is below 1000 nM. Compound `CC(=O)N1CCN(c2nc(NC[C@@H]3CC[C@H]4C[C@@H]3C4(C)C)nc(Nc3ccc4ncsc4c3)n2)CC1` registered an IC50 below 10000 nM. Consider `CNCCN(C)c1nc(NCc2ccc(F)cc2F)nc(Nc2ccc3ncsc3c2)n1`, for which the half-maximal inhibitory concentration (IC50) was below 10000 nM. The same measure for `CCCCC(C)c1nc(Nc2cc(C(N)=O)ccc2C)nc(N[C@H]2CCNC2)n1` (stereo partly specified): below 1000 nM. The same measure for `CNC(=O)CCC(=O)N1CCN(c2nc(NCC3CC[C@H]4C[C@@H]3C4(C)C)nc(Nc3ccc4ncsc4c3)n2)CC1` (stereo partly specified): below 10000 nM; for `CCOC(=O)Nc1ccc(C)c(Nc2nc(NCCN3CCCC3)nc(N(C)CC(C)(C)C)n2)c1`: below 1000 nM; for `CC1(C)C2CCC(CNc3nc(Nc4ccc5ncoc5c4)nc(N4CCNCC4)n3)C1C2` (stereo unspecified): below 10000 nM.

Consider `Cc1ccc(C(N)=O)cc1Nc1nc(N[C@H]2CCN(Cc3ccccc3C#N)C2)nc(N(C)CC(C)C)n1`, for which the concentration for half-maximal inhibition (IC50) is below 1000 nM. For the compound `CNC(=O)c1ccc(C)c(Nc2nc(N[C@H]3CCN(C(C)C)C3)nc(N(C)CC(C)(C)C)n2)c1`, the IC50 was below 1000 nM.

`NC(=O)CNc1nc(Nc2ccc3ncsc3c2)nc(NC2CCc3ccccc32)n1` (stereo unspecified) returned an IC50 below 10000 nM.

The compound `Cc1ccc(-c2ncc[nH]2)cc1Nc1nc(N[C@@H]2CCNC2)nc(N(C)CC(C)(C)C)n1` had an IC50 below 1000 nM. Regarding `COc1ccccc1NC(=O)c1ccc(C)c(Nc2nc(N[C@H]3CCNC3)nc(N(C)CC(C)(C)C)n2)c1`, the half-maximal inhibitory concentration (IC50) was below 1000 nM.

In the case of `CONC(=O)c1ccc(C)c(Nc2nc(N(C)CC(C)(C)C)nc(N3CCCCC3)n2)c1`, the IC50 is below 1000 nM.

In the case of `CNCCN(C)c1nc(NC[C@@H]2CC[C@H]3C[C@@H]2C3(C)C)nc(Nc2ccc3ncsc3c2)n1`, the IC50 is below 10000 nM.

`Cc1ccc(S(N)(=O)=O)cc1Nc1nc(N[C@H]2CCNC2)nc(N(C)CC(C)(C)C)n1`: the concentration for half-maximal inhibition (IC50) is below 1000 nM.

Turning to `Cc1ccc(C(N)=O)cc1Nc1nc(NC[C@H]2CCCN2)nc(N(C)CC(C)(C)C)n1`, the IC50 is below 1000 nM. As to `CN(CCN(C)c1nc(NCC2CCC3CC2C3(C)C)nc(Nc2ccc3ncsc3c2)n1)C(=O)CCC(=O)O` (stereo unspecified), the 50% inhibitory concentration (IC50) was below 10000 nM.

`Cc1ccc(C(N)=O)cc1Nc1nc(N[C@H]2CCN(Cc3ccncc3)C2)nc(N(C)CC(C)C)n1` registered an IC50 below 1000 nM. The same measure for `CNCCN(C)c1nc(NCC(C)c2ccccc2)nc(Nc2ccc3nc(C)sc3c2)n1` (stereo unspecified): below 10000 nM; for `Cc1ccc(C(N)=O)cc1Nc1nc(N[C@@H]2CCCC[C@H]2N)nc(N(C)CC(C)C)n1`: below 1000 nM; for `CN1CCCN(c2nc(Sc3cc(C(N)=O)ccc3F)nc(N(C)CC(C)(C)C)n2)CC1`: below 30000 nM. In the case of `CNCCN(C)c1nc(NCc2ccc3c(c2)OCO3)nc(NCC(C)c2ccccc2)n1` (stereo unspecified), the concentration for half-maximal inhibition (IC50) is below 10000 nM. The same measure for `COC1CCCC(C(=O)N(C)CCCN(C)c2nc(NCC(C)c3ccccc3)nc(Nc3ccc4ncsc4c3)n2)C1` (stereo unspecified): below 10000 nM; for `Cc1cc2c(cc1Cl)C(=O)N2c1nc(N[C@H]2CCNC2)nc(N(C)CC(C)(C)C)n1`: below 1000 nM; for `c1ccc2c(c1)CCN(c1nc(Nc3ccc4ncsc4c3)nc(N3CCNCC3)n1)C2`: below 10000 nM. `CCONC(=O)c1ccc(C)c(Nc2nc(NC)cc(N(C)CC(C)(C)C)n2)c1` had an IC50 below 1000 nM. As to `Cc1ccc(C(=O)Nc2cccc(N(C)C)c2)cc1Nc1nc(N[C@H]2CCNC2)nc(N(C)CC(C)(C)C)n1`, the IC50 is below 1000 nM. For the compound `Cc1ccc(C(N)=O)cc1Sc1nc(N[C@@H]2CCNC2)nc(N(C)CC(C)(C)C)n1`, the half-maximal inhibitory concentration (IC50) was below 30000 nM. On to `Cc1ccc(C(N)=O)cc1Nc1nc(NCC2(c3ccc(Cl)cc3)CC2)nc(N[C@H]2CCNC2)n1`, for which the half-maximal inhibitory concentration (IC50) is below 1000 nM. `CCC(C)N1CC[C@@H](Nc2nc(Nc3cc(C(N)=O)ccc3C)nc(N(C)CC(C)(C)C)n2)C1` (stereo partly specified): the 50% inhibitory concentration (IC50) was below 1000 nM.

As for `Cc1ccc(C(N)=O)cc1Nc1nc(N[C@H]2CCNC2)nc(N(C)C[C@H](C)c2ccccc2)n1`, the 50% inhibitory concentration (IC50) was below 1000 nM.

As for `COc1cccc(NC(=O)c2ccc(C)c(Nc3nc(N[C@H]4CCNC4)nc(N(C)CC(C)(C)C)n3)c2)c1`, the concentration for half-maximal inhibition (IC50) was below 1000 nM. Compound `c1nc2ccc(Nc3nc(NCC4CCCO4)nc(NC4CC4)n3)cc2s1` (stereo unspecified) registered an IC50 below 10000 nM. The figure for `Cc1ccc(C(N)=O)cc1Nc1nc(N[C@H]2CCN(C(C#N)c3ccccc3)C2)nc(N(C)CC(C)C)n1` (stereo partly specified) is below 1000 nM; for `CCNC(=O)c1ccc(C)c(Nc2nc(NC[C@H]3CCCN3)nc(N(C)CC(C)(C)C)n2)c1` it is below 1000 nM. In turn, `Cc1ccc(C(N)=O)cc1Nc1nc(NCC(C)c2ccccc2)nc(N[C@H]2CCNC2)n1` (stereo partly specified) showed an IC50 below 1000 nM. The figure for `CONC(=O)c1ccc(C)c(Nc2nc(N(C)C)nc(N(C)CC(C)(C)C)n2)c1` is below 1000 nM; for `CNC(=O)c1ccc(C)c(Nc2nc(O[C@H]3CCNC3)nc(N(C)CC(C)(C)C)n2)c1` it is below 1000 nM; for `CONC(=O)c1ccc(F)c(Sc2nc(N(C)CC(C)(C)C)nc(N3CCCN(C)CC3)n2)c1` it is below 30000 nM. In the case of `Cc1ccc(C(N)=O)cc1Nc1nc(NCC2CCC2)nc(N[C@H]2CCNC2)n1`, the half-inhibitory concentration (IC50) was below 1000 nM. The compound `Cc1cc(Cl)c(C(N)=O)cc1Nc1nc(N[C@H]2CCNC2)nc(N(C)CC(C)C)n1` had a 50% inhibitory concentration (IC50) below 1000 nM. The same measure for `C[C@H](CNc1nc(Nc2ccc3ncsc3c2)nc(N(C)CCN(C)C(=O)CCC(=O)O)n1)c1ccccc1`: below 10000 nM; for `CONC(=O)c1ccc(C)c(Nc2nc(N[C@@H]3CCCNC3=O)nc(N(C)CC(C)(C)C)n2)c1`: below 1000 nM. Take `Cc1ccc(C(N)=O)cc1Nc1nc(N[C@H]2CCNC2)nc(N(C)C[C@@H]2CC[C@H]3C[C@H]2C3(C)C)n1`: the 50% inhibitory concentration (IC50) is below 1000 nM. The figure for `COc1nc(NCC(C)c2ccccc2)nc(Nc2ccc3ncsc3c2)n1` (stereo unspecified) is below 10000 nM; for `Cc1ccc(C(=O)Nc2cccc(F)c2)cc1Nc1nc(N[C@H]2CCNC2)nc(N(C)CC(C)(C)C)n1` it is below 1000 nM; for `CN(CC(C)(C)C)c1nc(Cc2cccc(C(N)=O)c2)nc(N[C@H]2CCNC2)n1` it is below 1000 nM.

For `OC(CNc1nc(Cl)nc(Nc2ccc3ncsc3c2)n1)c1ccccc1` (stereo unspecified), the concentration for half-maximal inhibition (IC50) was below 10000 nM. The figure for `Cc1ccc(-c2ncc[nH]2)cc1Nc1nc(N(C)CC(C)(C)C)nc(N2CCCN(C)CC2)n1` is below 1000 nM; for `CNCCN(C)c1nc(NCC2CCC3CC2C3(C)C)nc(Nc2ccc3ncsc3c2)n1` (stereo unspecified) it is below 10000 nM; for `CCNC(=O)N(C)CCCN(C)c1nc(NCC(C)c2ccccc2)nc(Nc2ccc3ncsc3c2)n1` (stereo unspecified) it is below 10000 nM. In turn, `Cc1ccc(C(N)=O)cc1Nc1nc(NCC(C)(C)C)nc(N[C@@H]2CCNC2)n1` yielded a 50% inhibitory concentration (IC50) below 1000 nM. The same measure for `Cc1ccc(C(N)=O)cc1Nc1nc(N[C@H]2CONC2=O)nc(N(C)CC(C)(C)C)n1`: below 1000 nM; for `CCC[C@@H]1C[C@@H](Nc2nc(Nc3cc(C(N)=O)ccc3C)nc(N(C)CC(C)(C)C)n2)CN1`: below 1000 nM; for `Cc1ccc(C(N)=O)cc1Nc1nc(NCC23CC4CC(CC(C4)C2)C3)nc(N[C@@H]2CCNC2)n1`: below 1000 nM. In turn, `Cc1ccc(C(N)=O)cc1Nc1nc(N[C@@H]2CCN(C(C)CO)C2)nc(N(C)CC(C)(C)C)n1` (stereo partly specified) yielded an IC50 below 1000 nM. Take `CONC(=O)c1ccc(C)c(Nc2nc(N(C)CC(C)(C)C)nc(N3CCCN(C)CC3)n2)c1`: the half-inhibitory concentration (IC50) was below 1000 nM. The same measure for `Cc1ccc(C(N)=O)cc1Nc1nc(N[C@H]2CCN(c3ccccc3)C2)nc(N(C)CC(C)(C)C)n1`: below 1000 nM; for `Cc1c(Nc2nc(NC[C@@H]3CC[C@H]4C[C@H]3C4(C)C)nc(N(C)CC(C)C)n2)cccc1C(N)=O`: below 1000 nM; for `CCONC(=O)c1ccc(C)c(Nc2nc(N[C@@H]3CCNC3)nc(N(C)CC(C)C(F)(F)F)n2)c1` (stereo partly specified): below 1000 nM.

`Cc1ccc(C(N)=O)cc1Nc1nc(NC2CCN(Cc3ccc(C(C)C)cc3)C2)nc(N(C)CC(C)C)n1` (stereo unspecified): the IC50 is below 1000 nM. The figure for `Cc1ccc(C(N)=O)cc1Nc1nc(NC2CCCC2)nc(N(CCO)Cc2ccccc2)n1` is below 1000 nM; for `CONC(=O)c1ccc(C)c(Nc2nc(N(C)CC(C)(C)C)nc(N3CCN(C)CC3)n2)c1` it is below 1000 nM. Regarding `Cc1ccc(C(=O)O)cc1Nc1nc(N[C@H]2CCNC2)nc(N(C)CC(C)(C)C)n1`, the IC50 is below 1000 nM. The same measure for `Cc1ccc(C(N)=O)cc1Nc1nc(N[C@H]2CCN(C3CCCC3)C2)nc(N(C)CC(C)(C)C)n1`: below 1000 nM.

`CCN1C[C@@H](Nc2nc(Nc3cc(C(N)=O)ccc3C)nc(N(C)CC(C)(C)C)n2)C[C@H]1C` returned an IC50 below 1000 nM. The figure for `CC(CNc1nc(Nc2ccc3ncsc3c2)nc(N(C)CCCN(C)C(=O)C2CCOC2)n1)c1ccccc1` (stereo unspecified) is below 10000 nM; for `CC(C)c1nc(NCC(C)c2ccccc2)nc(Nc2ccc3ncsc3c2)n1` (stereo unspecified) it is below 10000 nM.

Turning to `CCONC(=O)c1ccc(C)c(Nc2cc(N3CCCN(C)CC3)nc(N(C)CC(C)(C)C)n2)c1`, the half-inhibitory concentration (IC50) was below 1000 nM. `CNC(=O)c1ccc(C)c(Oc2nc(N[C@@H]3CCNC3)nc(N(C)CC(C)(C)C)n2)c1` gave an IC50 below 30000 nM.

The compound `CC(CNc1nc(N)nc(Nc2ccc3ncsc3c2)n1)c1ccccc1` (stereo unspecified) came in with a 50% inhibitory concentration (IC50) below 10000 nM. Consider `Cc1ccc(C(=O)NCCC(C)C)cc1Nc1nc(N[C@H]2CCNC2)nc(N(C)CC(C)(C)C)n1`, for which the half-maximal inhibitory concentration (IC50) is below 1000 nM. On to `CC(C)NC(=O)N(C)CCCN(C)c1nc(NCC(C)c2ccccc2)nc(Nc2ccc3ncsc3c2)n1` (stereo unspecified), for which the IC50 was below 10000 nM. With `CC(CCCCCCN(C)c1nc(NCC(C)c2ccccc2)nc(Nc2ccc3ncsc3c2)n1)C(N)=O` (stereo unspecified), the IC50 was below 10000 nM. On to `Cc1ccc(C(N)=O)cc1Nc1nc(N[C@@H]2CCNC2)nc(N2CCC(C)(C)CC2)n1`, for which the concentration for half-maximal inhibition (IC50) was below 1000 nM.

`CCN(CC(C)(C)C)c1nc(Nc2cc(C(N)=O)ccc2C)nc(N[C@H]2CCNC2)n1` gave an IC50 below 1000 nM.
